Laboratory results: US20070270337A1, “Pharmaceutical Compositions for Preventing or Treating Th1-Mediated Immune Diseases” (Daiichi Asubio Pharma Co., Ltd., priority 2003, published 2007)

Legend:
[1] = system: naive T cells co-cultured with dendritic cells; assay: Intracellular cytokine expression in naive T cells (dendritic cell-driven Th1/Th2 polarization, flow cytometry); assay type: cell-based, human; details: dendritic cells pretreated with LPS (1 μg/mL) + ANP (10^-7 M) versus LPS alone; Sample #1 and #2
Procedure: (§1) For experiments, the leukocyte layer (buffy coats) of peripheral blood from healthy volunteers (provided by Kyoto Red Cross Blood Center, Japan) was used. After the peripheral blood monocyte fraction was separated by density gradient centrifugation using Ficoll-Paque, the fraction was applied to a magnetic bead column using MACS CD14 or cultured in cell culture flasks at 37° C. for 1 hour to select the adhered cells, thereby separating monocytes. Immature dendritic cells were obtained by culturing the monocytes (2×10^5 cells/ml) for 7 days at 37° C. in the presence of 10% fetal bovine serum, 50 ng/mL human GM-CSF and 20 ng/mL human IL-4.
Dendritic cells were activated by being pre-incubated for 24 hours with LPS (1 μg/mL) in the presence or absence of ANP (10^−7 M) and then irradiated (30 Gy) to eliminate their proliferation ability. These dendritic cells (1×10^5 cells/well) and naive T cells separated from cord blood (1×10^6 cells/well) were co-cultured for 6 days. After the T cells were grown in the presence of IL-2 (50 U/mL) for an additional 8 days, the T cells were collected and stimulated for 4 hours with 50 ng/mL phorbol ester (PMA) and 500 ng/mL ionomycin. Two hours before completion of the incubation, Brefeldin A (10 μg/mL) was added. […] IFN-γ positive cells were determined as Th1-type cells, while IL-4 positive cells were determined as Th2-type cells.

[2] = system: naive CD4+ T cells cultured with dendritic cells; assay: T cell proliferation induced by activated dendritic cells ([3H]-thymidine uptake); assay type: cell-based, human
Procedure: as §1
Naive T cells (naive CD4^+ T cells) were isolated from the monocyte fraction of umbilical cord blood using magnetic beads for MACS CD4^+ T cell isolation. Dendritic cells were activated by being cultured for 24 hours with lipopolysaccharide (LPS, 1 μg/mL) in the presence or absence of ANP (10^−7 M). The cells were washed and irradiated (30 Gy) to eliminate their proliferation ability, followed by culturing together with the naive T cells (1×10^5 cells/well) for 6 days. The T cells were evaluated for their proliferation ability by 8 hour uptake of [methyl-^3H]-thymidine (0.5 μCi/well).

immature dendritic cells = assay: cGMP producing activity in immature dendritic cells; assay type: cell-based, human; details: 10^-12 to 10^-6 M, 15 minutes
Procedure: as §1
(§2) After the cells (1×10^5 cells/sample) were incubated in 500 μL of 10 mM HEPES, 0.5 mM 3-isobutyl-1-methylxanthine and 1 μM phospholamidon at 37° C. for 10 minutes, ANP or CNP was added to a final concentration of 10^−12 to 10^−6 M and incubation was continued for an additional 15 minutes. After the cells were washed and lysed, the intracellular cGMP concentration was measured by the ELISA method.

dendritic cells = assay: Cytokine production from dendritic cells (ELISA); assay type: cell-based, human; details: for IL-10 production from dendritic cells / IL-12 production from dendritic cells / TNFα production from dendritic cells: LPS (1 μg/mL) stimulated, 24 hours, ANP 10^-8 to 10^-6 M, CNP 10^-6 M
Procedure: as §1
Dendritic cells were incubated for 24 hours with LPS (1 μg/mL) in the presence or absence of ANP (10^−8 M to 10^−6 M) or CNP (10^−6 M), and the levels of IL-12, IL-10 and TNFα in each culture supernatant were measured by the ELISA method.

human monocytes = assay: cGMP producing activity in monocytes; assay type: cell-based; details: 10^-12 to 10^-6 M, 15 minutes
Procedure: as §1, §2

Compound | IFN-γ-producing cells (Th1-type) [1] | IL-4-producing cells (Th2-type) [1] | T cell proliferation induced by LPS-treated dendritic cells ([2]; ANP (10^-7 M) added simultaneously with LPS (1 μg/mL)) | proliferation of naive T cells ([2]; dendritic cells treated with ANP (10^-7 M) alone, without LPS) | intracellular cGMP levels (immature dendritic cells) | IL-10 production from dendritic cells (dendritic cells) | IL-12 production from dendritic cells (dendritic cells) | TNFα production from dendritic cells (dendritic cells) | IL-12, TNF-α and IL-10 production from dendritic cells (dendritic cells; LPS-unstimulated dendritic cells, ANP alone) | intracellular cGMP levels (human monocytes)
CC[C@H](C)[C@@H]1NC(=O)[C@H](CCCNC(=N)N)NC(=O)[C@H](CC(=O)O)NC(=O)[C@H](CCSC)NC(=O)[C@H](CCCNC(=N)N)NC(=O)CNC(=O)CNC(=O)[C@H](Cc2ccccc2)NC(=O)[C@@H](NC(=O)[C@H](CO)NC(=O)[C@H](CO)NC(=O)[C@H](CCCNC(=N)N)NC(=O)[C@H](CCCNC(=N)N)NC(=O)[C@H](CC(C)C)NC(=O)[C@@H](N)CO)CSSC[C@@H](C(=O)N[C@@H](CC(N)=O)C(=O)N[C@@H](CO)C(=O)N[C@@H](Cc2ccccc2)C(=O)N[C@@H](CCCNC(=N)N)C(=O)N[C@@H](Cc2ccc(O)cc2)C(=O)O)NC(=O)CNC(=O)[C@H](CC(C)C)NC(=O)CNC(=O)[C@H](CO)NC(=O)[C@H](CCC(N)=O)NC(=O)[C@H](C)NC(=O)CNC1=O [ANP, atrial natriuretic peptide] | decrease in IFN-γ-producing cells | increase in IL-4-producing cells | almost completely inhibited | no effect on proliferation of naive T cells | increase intracellular cGMP levels in dendritic cells in a concentration-dependent manner from a concentration as low as 10^−12 M | enhance IL-10 production | decrease both IL-12 and TNFα levels in a concentration-dependent manner | decrease both IL-12 and TNFα levels in a concentration-dependent manner | no effect on these cytokine productions | little increase in cGMP levels at all concentrations
C-type natriuretic peptide [CNP, reference compound] |  |  |  |  | no effect on intracellular cGMP levels | no effect on cytokine expression | no effect on cytokine expression | no effect on cytokine expression |  | no effect on intracellular cGMP levels
